Consider 21 compounds from PubChem BioAssay (NCI).

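Tested at 5 concentrations; 48 h exposure; 96-well plates; endpoints linearly interpolated, else capped at highest concentration. GI50: concentration for 50% inhibition of growth. Definition used: TGI = concentration required for complete inhibition of growth.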

For orientation: GI50 means the concentration giving 50% growth inhibition. As usually defined, the TGI is the concentration at which net growth stops. Higher therefore signals lower sensitivity of the cells.

Among the test systems are HCT-116 colon; HL-60(TB) leukemia; KM12 colon; MCF7 breast; MDA-MB-435; RPMI-8226 leukemia; SK-MEL-5 melanoma; SR leukemia; SW-620 colon.
Experiment in all cases: DTP human tumour cell line panel, 48 h

For `COc1cc(Cn2cc3c(c2)-c2oncc2CC3)cc(OC)c1OC`, the GI50 in the test with HCT-116 colon is 0.0379 µM; in the test with HL-60(TB) leukemia, less than 0.0177 µM; in the test with KM12 colon, 0.0312 µM; in the test with MCF7 breast it was 0.0324 µM; in the test with MDA-MB-435, less than 0.0107 µM; in the test with RPMI-8226 leukemia it was 0.0459 µM. Also, the GI50 with SK-MEL-5 melanoma was 0.0366 µM; in the test with SR leukemia it was 0.0286 µM; with SW-620 colon, 0.0327 µM. Also, the TGI in the test with HCT-116 colon was greater than 100 µM; with HL-60(TB) leukemia, 0.456 µM; in the test on MCF7 breast it was greater than 100 µM; in the test with MDA-MB-435, less than 0.0225 µM; in the test with RPMI-8226 leukemia, 10.4 µM; in the test with SK-MEL-5 melanoma, 0.195 µM. The TGI with SR leukemia and in the test on SW-620 colon was greater than 100 µM in each case.
As to `Nc1cc(=O)[nH]c(SC2=NC(N)CC(O)C2)n1` (stereo not drawn), the TGI in the test on KM12 colon, in the test on RPMI-8226 leukemia, in the test with SK-MEL-5 melanoma, in the test with SR leukemia and in the test on SW-620 colon was greater than 100 µM each time.
Regarding `CCCC(O)[C@@H](O)c1ccc2c(c1O)C(=O)c1c(OC)cccc1C2=O` (stereo partly drawn), the TGI is greater than 100 µM in the test with HCT-116 colon; 42.9 µM in the test with HL-60(TB) leukemia; greater than 100 µM in the test on KM12 colon; 38.2 µM in the test with RPMI-8226 leukemia; 31.2 µM in the test on SK-MEL-5 melanoma; 66.6 µM with SR leukemia. In the test on SW-620 colon, this compound registered a TGI greater than 100 µM.
Take `COC(=O)CCC(=O)N1Cc2cc(C)ccc2N(C(=O)CCC(=O)OC)Cc2cc(C)ccc21`: the concentration for total growth inhibition (TGI) in the test on HCT-116 colon, in the test with HL-60(TB) leukemia, in the test with KM12 colon, in the test on RPMI-8226 leukemia, with SK-MEL-5 melanoma and in the test with SR leukemia was greater than 100 µM each time. This compound also had a TGI in the test with SW-620 colon greater than 100 µM.
Turning to `CCOP(=O)(OCC)C1CCCCOC1=O` (stereo not drawn), the TGI with HCT-116 colon, in the test with HL-60(TB) leukemia, in the test with KM12 colon, in the test on RPMI-8226 leukemia, in the test with SK-MEL-5 melanoma and with SW-620 colon was greater than 100 µM in each case.
`CCC[CH2][Sn]([CH2]CCC)([O]C(C)=O)[O]C(C)=O`: the GI50 was 1.56 µM with HCT-116 colon; 0.524 µM in the test with HL-60(TB) leukemia; 1.66 µM in the test on KM12 colon; 0.321 µM in the test on RPMI-8226 leukemia; 1.04 µM in the test on SK-MEL-5 melanoma; 0.571 µM with SR leukemia. In addition, the GI50 in the test with SW-620 colon is 0.694 µM. Further, the TGI was determined as 3.26 µM in the test on HCT-116 colon; 1.45 µM with HL-60(TB) leukemia; 3.77 µM with KM12 colon; 2.11 µM in the test on RPMI-8226 leukemia; 2.4 µM with SK-MEL-5 melanoma; 4.72 µM in the test on SR leukemia. Also, the TGI in the test on SW-620 colon worked out at 2.65 µM.
With `C=C1C(=O)OC2CC3(C)C=CC(=O)C(=C)C3CC12` (stereo not drawn), the TGI in the test with HCT-116 colon worked out at 2.54 µM; in the test on KM12 colon, 5.57 µM; in the test on RPMI-8226 leukemia, 3.22 µM; with SK-MEL-5 melanoma it was 3.48 µM; with SR leukemia it was 12.4 µM; in the test with SW-620 colon, 2.36 µM.
For the compound `COc1ccccc1[N-]C(C1=C([O-])c2ccccc2C1=O)c1ccccc1.COc1ccccc1[N-]C(C1=C([O-])c2ccccc2C1=O)c1ccccc1.[Cu+2]` (stereo not drawn), the GI50 with HCT-116 colon is 3.26 µM; in the test with HL-60(TB) leukemia it was 3.25 µM; in the test on KM12 colon, 5.76 µM; in the test on RPMI-8226 leukemia, 3.9 µM; in the test with SK-MEL-5 melanoma it was 5.39 µM; in the test with SR leukemia, 8.58 µM. Moreover, the GI50 with SW-620 colon is 6.08 µM. Besides, the TGI was greater than 100 µM in the test with HCT-116 colon; greater than 100 µM in the test on HL-60(TB) leukemia; 43.1 µM in the test on KM12 colon; greater than 100 µM with RPMI-8226 leukemia; 72.7 µM in the test on SK-MEL-5 melanoma; greater than 100 µM in the test with SR leukemia. Also, the TGI with SW-620 colon is greater than 100 µM.
In the case of `O=C(NCCCCCCNC(=O)c1cccc2ccccc12)c1cccc2ccccc12`, the TGI was 53.9 µM in the test with HCT-116 colon; greater than 100 µM with HL-60(TB) leukemia; greater than 100 µM in the test on KM12 colon; greater than 100 µM in the test with RPMI-8226 leukemia; greater than 100 µM in the test with SK-MEL-5 melanoma; greater than 100 µM in the test on SR leukemia. This compound registered a TGI with SW-620 colon greater than 100 µM.
As to `O=C(CC1Sc2ccccc2NC1=O)Nc1cc(Cl)ccc1Cl` (stereo not drawn), the TGI with HCT-116 colon is greater than 100 µM; in the test with HL-60(TB) leukemia, greater than 100 µM; in the test with RPMI-8226 leukemia, greater than 100 µM; with SK-MEL-5 melanoma, greater than 100 µM; in the test with SR leukemia, 82.1 µM; with SW-620 colon, greater than 100 µM.
Regarding `CC(=O)[O][Pb]([O]C(C)=O)([c]1ccccc1)[c]1ccccc1`, the GI50 in the test on HCT-116 colon is 4.81 µM; with HL-60(TB) leukemia, greater than 100 µM; with KM12 colon, 12.6 µM; with RPMI-8226 leukemia, 4.12 µM; with SK-MEL-5 melanoma, 2.91 µM; with SR leukemia it was 6.22 µM. Further, the GI50 in the test with SW-620 colon is 5.42 µM. For the same compound, the TGI in the test with HCT-116 colon was greater than 59.1 µM; with HL-60(TB) leukemia, greater than 100 µM; in the test with KM12 colon it was greater than 100 µM; in the test with RPMI-8226 leukemia, greater than 100 µM; in the test on SK-MEL-5 melanoma, 14 µM; in the test on SR leukemia, greater than 100 µM. The TGI in the test with SW-620 colon was greater than 100 µM.
Regarding `CN(C)c1ccc2c(NCCCCCCNc3ccnc4cc(N(C)C)ccc34)ccnc2c1`, the TGI in the test on HCT-116 colon, with HL-60(TB) leukemia, in the test on KM12 colon, in the test with SK-MEL-5 melanoma, with SR leukemia and in the test with SW-620 colon was greater than 100 µM throughout.
Consider `COc1cc2cc(Oc3ccc(NC(=O)Nc4ccc(Cl)c(C(F)(F)F)c4)cc3)c(C)nc2cc1OCCN1CCCCC1`, for which the GI50 was 1.54 µM in the test on HCT-116 colon; 1.87 µM in the test on HL-60(TB) leukemia; 1.64 µM in the test with KM12 colon; 1.56 µM in the test on MDA-MB-435; 1.65 µM with SK-MEL-5 melanoma; 0.486 µM in the test with SR leukemia. In addition, the GI50 in the test on SW-620 colon was 1.9 µM. The TGI in the test with HCT-116 colon stood at 2.98 µM; with HL-60(TB) leukemia, 3.53 µM; in the test with KM12 colon, 3.09 µM; in the test with MDA-MB-435 it was 2.92 µM; in the test on SK-MEL-5 melanoma, 3.04 µM; in the test with SR leukemia, 2.37 µM. In addition, in the test with SW-620 colon, the TGI came out at 3.48 µM.
`C=C1C(=O)O[C@H]2C[C@@H](C)[C@@H]3CC(=O)OC[C@@]3(C)CC12` (stereo partly drawn): the TGI with HCT-116 colon is greater than 100 µM; with KM12 colon, 62 µM; in the test with RPMI-8226 leukemia it was 75.2 µM; in the test with SK-MEL-5 melanoma, greater than 100 µM; with SW-620 colon, 35.1 µM.
Turning to `Nc1ncnc2sc(=S)c3c(c12)CCC3`, the GI50 in the test with HCT-116 colon is 31.8 µM; in the test on KM12 colon it was 40.7 µM; in the test with MCF7 breast, 25.3 µM; in the test on MDA-MB-435 it was 46.9 µM; in the test with RPMI-8226 leukemia, 16.8 µM; in the test on SK-MEL-5 melanoma it was 4.81 µM. For the same compound, the GI50 in the test on SW-620 colon is 33.5 µM. Further, the TGI is greater than 100 µM in the test with HCT-116 colon; greater than 100 µM in the test on KM12 colon; 92.8 µM in the test on MCF7 breast; greater than 100 µM in the test with MDA-MB-435; 55.3 µM in the test on RPMI-8226 leukemia; 29.8 µM in the test on SK-MEL-5 melanoma. In the test on SW-620 colon, this compound came in with a TGI greater than 100 µM.
For the compound `CC(=O)/C(=C\c1ccco1)C(=O)Nc1ccccc1`, the TGI in the test with HCT-116 colon, in the test with HL-60(TB) leukemia, in the test with KM12 colon, in the test on RPMI-8226 leukemia, with SK-MEL-5 melanoma and with SR leukemia was greater than 100 µM throughout. The compound further returned a TGI in the test with SW-620 colon greater than 100 µM.
On to `COC12C=CC(CC1)c1c(O)ccc(O)c12` (stereo not drawn), for which the TGI with HCT-116 colon was greater than 100 µM; with HL-60(TB) leukemia, 41.6 µM; with KM12 colon, greater than 100 µM; in the test on RPMI-8226 leukemia it was greater than 100 µM; in the test with SK-MEL-5 melanoma, greater than 100 µM; in the test on SR leukemia it was 36.3 µM. Also, the TGI in the test with SW-620 colon was greater than 63.8 µM.
In the case of `CC1CC2C(=O)NC(=O)C2c2[nH]c3ccccc3c21` (stereo not drawn), the TGI in the test with HCT-116 colon, with HL-60(TB) leukemia, in the test with KM12 colon, in the test on RPMI-8226 leukemia, in the test with SK-MEL-5 melanoma and in the test on SR leukemia was greater than 100 µM in each case. The TGI in the test with SW-620 colon is greater than 100 µM.
For the compound `O=C1C/C(=C/c2ccc(/C=C3/CC(=O)N(c4cccc(Br)c4)C3=O)cc2)C(=O)N1c1cccc(Br)c1`, the TGI in the test on HCT-116 colon, in the test with HL-60(TB) leukemia, in the test with KM12 colon, with RPMI-8226 leukemia, in the test on SK-MEL-5 melanoma and in the test with SR leukemia was greater than 100 µM throughout. In the test on SW-620 colon, this compound returned a TGI greater than 100 µM.
In the case of `COC(=O)[C@@H]1CSC(=S)N1C(=O)C[C@H]1CC=CC[C@H]1CC(=O)Sc1ccccc1`, the TGI with HCT-116 colon was determined as 30.8 µM; in the test with HL-60(TB) leukemia it was 14 µM; in the test on KM12 colon, 34.1 µM; in the test on RPMI-8226 leukemia, 61.7 µM; with SR leukemia it was 27.9 µM; in the test on SW-620 colon, 33.9 µM.
Turning to `O=C(CCn1[nH]c(=O)c(Cl)c(Cl)c1=O)NOCCCc1ccccc1`, the TGI in the test with HCT-116 colon, in the test on HL-60(TB) leukemia, in the test on KM12 colon, in the test with RPMI-8226 leukemia, in the test on SK-MEL-5 melanoma and in the test with SR leukemia was greater than 100 µM throughout. This compound yielded a TGI in the test on SW-620 colon greater than 100 µM.
